{
  "source": "EPA's ToxValDB 9.5",
  "test_system": "Rattus norvegicus",
  "conditions": "short-term, duration: 28 days, oral, gavage, Sprague-Dawley",
  "data": [
    {"compound": "O=S(=O)(O)C(F)(F)C(F)(F)C(F)(F)C(F)(F)C(F)(F)C(F)(F)C(F)(F)C(F)(F)F", "note": "[Perfluorooctanesulfonic acid]", "values": [
      {"measurement": "LOEL", "setting": "F, Organ weights_Heart - Relative", "value": 5, "unit": "mg/kg-day"},
      {"measurement": "LOEL", "setting": "F, Organ weights_Liver - Absolute", "value": 0.312, "unit": "mg/kg-day"},
      {"measurement": "LOEL", "setting": "F, Organ weights_Liver - Relative", "value": 0.312, "unit": "mg/kg-day"},
      {"measurement": "NOEL", "setting": "F, Organ weights_Lung - Absolute", "value": 5, "unit": "mg/kg-day"},
      {"measurement": "LOEL", "setting": "F, Organ weights_Lung - Relative", "value": 1.25, "unit": "mg/kg-day"},
      {"measurement": "NOEL", "setting": "F, Organ weights_R. adrenal gland - Absolute", "value": 5, "unit": "mg/kg-day"},
      {"measurement": "NOEL", "setting": "F, Organ weights_R. adrenal gland - Relative", "value": 5, "unit": "mg/kg-day"},
      {"measurement": "NOEL", "setting": "F, Organ weights_R. kidney - Absolute", "value": 5, "unit": "mg/kg-day"},
      {"measurement": "NOEL", "setting": "F, Organ weights_R. kidney - Relative", "value": 5, "unit": "mg/kg-day"},
      {"measurement": "NOEL", "setting": "F, Organ weights_Spleen - Absolute", "value": 5, "unit": "mg/kg-day"},
      {"measurement": "NOEL", "setting": "F, Organ weights_Spleen - Relative", "value": 5, "unit": "mg/kg-day"},
      {"measurement": "LOEL", "setting": "F, Organ weights_Thymus - Absolute", "value": 1.25, "unit": "mg/kg-day"},
      {"measurement": "NOEL", "setting": "F, Organ weights_Thymus - Relative", "value": 5, "unit": "mg/kg-day"},
      {"measurement": "NOEL", "setting": "F, Survival rates", "value": 5, "unit": "mg/kg-day"},
      {"measurement": "LOEL", "setting": "M, Clinical chemistry_Alanine aminotransferase", "value": 0.625, "unit": "mg/kg-day"},
      {"measurement": "LOEL", "setting": "M, Clinical chemistry_Albumin", "value": 5, "unit": "mg/kg-day"},
      {"measurement": "LOEL", "setting": "M, Clinical chemistry_Albumin/globulin ratio", "value": 5, "unit": "mg/kg-day"},
      {"measurement": "LOEL", "setting": "M, Clinical chemistry_Alkaline phosphatase", "value": 0.625, "unit": "mg/kg-day"},
      {"measurement": "LOEL", "setting": "M, Clinical chemistry_Aspartate aminotransferase", "value": 0.625, "unit": "mg/kg-day"},
      {"measurement": "LOEL", "setting": "M, Clinical chemistry_Cholesterol", "value": 0.312, "unit": "mg/kg-day"},
      {"measurement": "LOEL", "setting": "M, Clinical chemistry_Direct bilirubin", "value": 5, "unit": "mg/kg-day"},
      {"measurement": "LOEL", "setting": "M, Clinical chemistry_Free thyroxine", "value": 0.312, "unit": "mg/kg-day"},
      {"measurement": "LOEL", "setting": "M, Clinical chemistry_Globulin", "value": 5, "unit": "mg/kg-day"},
      {"measurement": "NOEL", "setting": "M, Clinical chemistry_Sorbitol dehydrogenase", "value": 5, "unit": "mg/kg-day"},
      {"measurement": "NOEL", "setting": "M, Clinical chemistry_Testosterone", "value": 5, "unit": "mg/kg-day"},
      {"measurement": "NOEL", "setting": "M, Clinical chemistry_Thyroid stimulating hormone", "value": 5, "unit": "mg/kg-day"},
      {"measurement": "LOEL", "setting": "M, Clinical chemistry_Total bile acids", "value": 5, "unit": "mg/kg-day"},
      {"measurement": "NOEL", "setting": "M, Clinical chemistry_Total bilirubin", "value": 5, "unit": "mg/kg-day"},
      {"measurement": "NOEL", "setting": "M, Clinical chemistry_Total protein", "value": 5, "unit": "mg/kg-day"},
      {"measurement": "LOEL", "setting": "M, Clinical chemistry_Total thyroxine", "value": 0.312, "unit": "mg/kg-day"},
      {"measurement": "LOEL", "setting": "M, Clinical chemistry_Total triiodothyronine", "value": 0.625, "unit": "mg/kg-day"},
      {"measurement": "LOEL", "setting": "M, Clinical chemistry_Triglycerides", "value": 5, "unit": "mg/kg-day"},
      {"measurement": "LOEL", "setting": "M, Gene expression_Acox1", "value": 1.25, "unit": "mg/kg-day"},
      {"measurement": "LOEL", "setting": "M, Gene expression_Acyl-CoA oxidase", "value": 2.5, "unit": "mg/kg-day"},
      {"measurement": "LOEL", "setting": "M, Gene expression_Cyp2b1", "value": 0.312, "unit": "mg/kg-day"},
      {"measurement": "LOEL", "setting": "M, Gene expression_Cyp2b2", "value": 0.312, "unit": "mg/kg-day"},
      {"measurement": "LOEL", "setting": "M, Gene expression_Cyp4a1", "value": 0.312, "unit": "mg/kg-day"},
      {"measurement": "NOEL", "setting": "M, Hematology_Erythrocytes", "value": 5, "unit": "mg/kg-day"},
      {"measurement": "NOEL", "setting": "M, Hematology_Hematocrit", "value": 5, "unit": "mg/kg-day"},
      {"measurement": "NOEL", "setting": "M, Hematology_Hemoglobin", "value": 5, "unit": "mg/kg-day"},
      {"measurement": "LOEL", "setting": "M, Hematology_Leukocytes", "value": 5, "unit": "mg/kg-day"},
      {"measurement": "LOEL", "setting": "M, Hematology_Reticulocytes", "value": 2.5, "unit": "mg/kg-day"},
      {"measurement": "LOEL", "setting": "M, Hematology_S. neutrophils", "value": 5, "unit": "mg/kg-day"},
      {"measurement": "LOEL", "setting": "M, Nonneoplastic effects_Bone marrow - Hypocellularity", "value": 1.25, "unit": "mg/kg-day"},
      {"measurement": "NOEL", "setting": "M, Nonneoplastic effects_Kidney - Papilla, necrosis", "value": 5, "unit": "mg/kg-day"},
      {"measurement": "NOEL", "setting": "M, Nonneoplastic effects_Liver - Hepatocyte, cytoplasmic alteration", "value": 5, "unit": "mg/kg-day"},
      {"measurement": "LOEL", "setting": "M, Nonneoplastic effects_Liver - Hepatocyte, hypertrophy", "value": 1.25, "unit": "mg/kg-day"},
      {"measurement": "LOEL", "setting": "M, Nonneoplastic effects_Liver - Hepatocyte, vacuolization cytoplasmic", "value": 2.5, "unit": "mg/kg-day"},
      {"measurement": "NOEL", "setting": "M, Nonneoplastic effects_Liver - Necrosis", "value": 5, "unit": "mg/kg-day"},
      {"measurement": "NOEL", "setting": "M, Nonneoplastic effects_Nose - Olfactory epithelium, degeneration", "value": 5, "unit": "mg/kg-day"},
      {"measurement": "NOEL", "setting": "M, Nonneoplastic effects_Nose - Olfactory epithelium, hyperplasia", "value": 5, "unit": "mg/kg-day"},
      {"measurement": "NOEL", "setting": "M, Nonneoplastic effects_Nose - Olfactory epithelium, inflammation, suppurative", "value": 5, "unit": "mg/kg-day"},
      {"measurement": "NOEL", "setting": "M, Nonneoplastic effects_Nose - Olfactory epithelium, necrosis", "value": 5, "unit": "mg/kg-day"},
      {"measurement": "LOEL", "setting": "M, Nonneoplastic effects_Spleen - Extramedullary hematopoiesis, decreased", "value": 1.25, "unit": "mg/kg-day"},
      {"measurement": "NOEL", "setting": "M, Nonneoplastic effects_Stomach, forestomach - Epithelium, hyperplasia", "value": 5, "unit": "mg/kg-day"},
      {"measurement": "NOEL", "setting": "M, Nonneoplastic effects_Thymus - Atrophy", "value": 5, "unit": "mg/kg-day"},
      {"measurement": "LOEL", "setting": "M, Organ weights_Heart - Absolute", "value": 5, "unit": "mg/kg-day"},
      {"measurement": "NOEL", "setting": "M, Organ weights_Heart - Relative", "value": 5, "unit": "mg/kg-day"},
      {"measurement": "LOEL", "setting": "M, Organ weights_Liver - Absolute", "value": 0.312, "unit": "mg/kg-day"},
      {"measurement": "LOEL", "setting": "M, Organ weights_Liver - Relative", "value": 0.312, "unit": "mg/kg-day"},
      {"measurement": "NOEL", "setting": "M, Organ weights_Lung - Absolute", "value": 5, "unit": "mg/kg-day"},
      {"measurement": "NOEL", "setting": "M, Organ weights_Lung - Relative", "value": 5, "unit": "mg/kg-day"},
      {"measurement": "LOEL", "setting": "M, Organ weights_R. adrenal gland - Absolute", "value": 1.25, "unit": "mg/kg-day"},
      {"measurement": "NOEL", "setting": "M, Organ weights_R. adrenal gland - Relative", "value": 5, "unit": "mg/kg-day"},
      {"measurement": "NOEL", "setting": "M, Organ weights_R. kidney - Absolute", "value": 5, "unit": "mg/kg-day"},
      {"measurement": "NOEL", "setting": "M, Organ weights_R. kidney - Relative", "value": 5, "unit": "mg/kg-day"},
      {"measurement": "LOEL", "setting": "M, Organ weights_Spleen - Absolute", "value": 1.25, "unit": "mg/kg-day"},
      {"measurement": "NOEL", "setting": "M, Organ weights_Spleen - Relative", "value": 5, "unit": "mg/kg-day"},
      {"measurement": "LOEL", "setting": "M, Organ weights_Thymus - Absolute", "value": 5, "unit": "mg/kg-day"},
      {"measurement": "LOEL", "setting": "M, Organ weights_Thymus - Relative", "value": 5, "unit": "mg/kg-day"},
      {"measurement": "NOEL", "setting": "M, Reproductive toxicity_Altered sperm parameters", "value": 5, "unit": "mg/kg-day"},
      {"measurement": "NOEL", "setting": "M, Survival rates", "value": 5, "unit": "mg/kg-day"}
    ]}
  ]
}
